{"source": "paper PMC8877721", "about": "(Journal of medicinal chemistry, 2021)", "key": {"[1]": {"test_system": "WNV", "assay": "Antiviral plaque assay, WNV", "assay_type": "cell-based, West Nile virus", "settings": "MOI 0.1, 3 days post-infection"}, "[2]": {"test_system": "HUH7 cells", "assay": "In cellulo metabolism of 1 and ddhC to ddhCTP in HUH7 cells", "assay_type": "cell-based, human", "settings": "100 μM"}, "[3]": {"test_system": "ZIKV (strain PRABC59)", "assay": "Antiviral plaque assay, ZIKV", "assay_type": "cell-based, Zika virus", "settings": "for reduction in ZIKV virus levels: 0.1 mM dose, MOI 0.1, plaque titration 4 days post-infection"}, "[4]": {"test_system": "Vero cells", "assay": "Alamar Blue cell viability assay, Vero cells", "assay_type": "cell-based", "settings": "2 days in culture"}, "[5]": {"test_system": "HUH7 cells", "assay": "Alamar Blue cell viability assay, HUH7 cells", "assay_type": "cell-based, human", "settings": "2 days in culture"}, "[6]": {"test_system": "ZIKV (strain PRABC59)", "settings": "1 mM ddhC over 24 h; cited from earlier work"}, "[7]": {"test_system": "HEK293 cells", "settings": "HEK293 cells exposed to ddhC, after 48 h; cited from earlier work"}, "[8]": {"biological_target": "T1, DNA polymerase γ (catalytic domain) (Homo sapiens, UniProt P54098)", "T1 sequence (P54098 1-1239)": "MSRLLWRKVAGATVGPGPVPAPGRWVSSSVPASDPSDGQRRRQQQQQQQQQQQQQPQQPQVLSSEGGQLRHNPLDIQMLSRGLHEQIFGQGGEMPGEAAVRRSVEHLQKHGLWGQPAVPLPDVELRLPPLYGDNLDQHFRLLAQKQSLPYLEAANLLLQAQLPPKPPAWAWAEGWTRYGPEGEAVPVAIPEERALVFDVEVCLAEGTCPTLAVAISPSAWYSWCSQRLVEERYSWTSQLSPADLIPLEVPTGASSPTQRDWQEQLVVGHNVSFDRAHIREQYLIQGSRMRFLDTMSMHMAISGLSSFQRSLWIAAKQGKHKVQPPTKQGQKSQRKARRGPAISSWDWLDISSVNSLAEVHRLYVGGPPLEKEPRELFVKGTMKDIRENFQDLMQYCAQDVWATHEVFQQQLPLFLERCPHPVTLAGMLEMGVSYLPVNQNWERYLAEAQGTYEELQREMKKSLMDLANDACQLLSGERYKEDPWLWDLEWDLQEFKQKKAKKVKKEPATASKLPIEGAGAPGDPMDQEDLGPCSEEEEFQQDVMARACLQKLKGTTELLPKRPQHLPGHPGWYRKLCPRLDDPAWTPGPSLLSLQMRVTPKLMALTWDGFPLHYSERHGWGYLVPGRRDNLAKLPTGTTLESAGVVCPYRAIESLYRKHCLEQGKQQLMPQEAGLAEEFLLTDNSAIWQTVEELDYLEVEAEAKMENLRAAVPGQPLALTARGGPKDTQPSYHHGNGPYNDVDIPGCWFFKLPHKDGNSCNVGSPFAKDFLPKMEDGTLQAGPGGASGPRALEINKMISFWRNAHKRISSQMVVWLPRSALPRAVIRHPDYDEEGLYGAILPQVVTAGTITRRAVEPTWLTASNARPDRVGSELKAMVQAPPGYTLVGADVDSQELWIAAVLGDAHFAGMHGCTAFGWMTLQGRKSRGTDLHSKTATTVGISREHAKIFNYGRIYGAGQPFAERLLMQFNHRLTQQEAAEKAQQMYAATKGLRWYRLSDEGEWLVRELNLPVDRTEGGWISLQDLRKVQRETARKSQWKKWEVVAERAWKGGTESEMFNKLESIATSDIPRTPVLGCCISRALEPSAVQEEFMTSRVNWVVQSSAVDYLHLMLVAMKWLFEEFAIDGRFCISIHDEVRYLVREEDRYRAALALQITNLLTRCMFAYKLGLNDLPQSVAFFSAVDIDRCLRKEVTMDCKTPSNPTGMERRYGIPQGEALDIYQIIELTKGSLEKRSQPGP", "assay": "Enzymatic incorporation of ddhCTP by DNA polymerase gamma", "assay_type": "biochemical", "settings": "100 μM nucleotide, 0, 10 or 20 min, gel electrophoresis"}, "[9]": {"biological_target": "ZIKV NS5 RdRp (Zika virus, UniProt A0A024B7W1)", "sequence (A0A024B7W1 2521-3423)": "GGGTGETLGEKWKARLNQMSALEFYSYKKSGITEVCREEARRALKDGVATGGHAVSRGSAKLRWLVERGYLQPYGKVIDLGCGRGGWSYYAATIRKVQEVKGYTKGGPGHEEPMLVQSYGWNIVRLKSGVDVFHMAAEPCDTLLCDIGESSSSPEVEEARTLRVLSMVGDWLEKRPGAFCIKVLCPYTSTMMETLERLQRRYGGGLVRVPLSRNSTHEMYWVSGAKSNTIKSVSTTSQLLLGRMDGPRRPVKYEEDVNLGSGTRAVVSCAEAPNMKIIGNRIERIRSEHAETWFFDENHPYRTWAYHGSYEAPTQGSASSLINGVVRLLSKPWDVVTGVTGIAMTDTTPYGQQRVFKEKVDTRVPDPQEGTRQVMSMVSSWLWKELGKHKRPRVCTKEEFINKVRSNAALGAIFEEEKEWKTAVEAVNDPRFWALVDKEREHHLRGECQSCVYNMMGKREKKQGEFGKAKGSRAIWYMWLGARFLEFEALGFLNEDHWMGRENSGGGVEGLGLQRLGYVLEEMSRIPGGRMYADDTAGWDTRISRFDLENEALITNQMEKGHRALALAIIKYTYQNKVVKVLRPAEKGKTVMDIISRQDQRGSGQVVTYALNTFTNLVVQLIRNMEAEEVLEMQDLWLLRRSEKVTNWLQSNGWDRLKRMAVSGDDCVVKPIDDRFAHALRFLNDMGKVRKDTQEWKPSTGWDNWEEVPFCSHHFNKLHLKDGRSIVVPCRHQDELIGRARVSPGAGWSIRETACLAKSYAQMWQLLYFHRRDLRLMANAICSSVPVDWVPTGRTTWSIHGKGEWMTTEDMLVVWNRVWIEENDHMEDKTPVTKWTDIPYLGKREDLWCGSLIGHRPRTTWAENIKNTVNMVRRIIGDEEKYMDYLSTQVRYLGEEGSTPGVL", "assay": "ZIKV RdRp-catalyzed nucleotide incorporation", "assay_type": "biochemical", "settings": "synthetic ddhCTP"}, "[10]": {"settings": "PAMPA assay; cited from earlier work"}}, "data": [{"smiles": "CC(C)OC(=O)[C@H](C)NP(=O)(OCC1=C[C@@H](O)[C@H](n2ccc(N)nc2=O)O1)Oc1ccccc1", "note": "(stereo in doubt) [compound 1, Isopropyl ((S)-(((4R,5R)-5-(4-amino-2-oxopyrimidin-1(2H)-yl)-4-hydroxy-4,5-dihydrofuran-2-yl)methoxy)(phenoxy)phosphoryl)-L-alaninate]", "values": [{"measurement": "reduction of WNV levels", "setting": "[1]; HUH7 cells", "result": "> 4", "unit": "log10 pfu/mL"}, {"measurement": "reduction of WNV levels", "setting": "[1]; HUH7.5 cells", "result": "> 4", "unit": "log10 pfu/mL"}, {"measurement": "activity against WNV (in words)", "setting": "[1]; Vero cells", "result": "inactive"}, {"measurement": "dosed compound in HUH7 lysate 24 h following dosage (cell permeable)", "setting": "[2]", "result": "detected"}, {"measurement": "reduction in ZIKV virus levels", "setting": "[3]; HUH7 cells", "result": "> 1", "unit": "log10 pfu/mL"}, {"measurement": "reduction in ZIKV virus levels", "setting": "[3]; HUH7.5 cells", "result": "> 1", "unit": "log10 pfu/mL"}, {"measurement": "activity against ZIKV in Vero cells (in words)", "setting": "[3]; Vero cells, MOI 0.1, 4 days post-infection, compared with HUH7 and HUH7.5", "result": "weaker activity"}, {"measurement": "cytotoxicity (in words)", "setting": "[4]", "result": "neither ddhC nor 1 were cytotoxic"}, {"measurement": "cytotoxicity (in words)", "setting": "[5]", "result": "neither ddhC nor 1 were cytotoxic"}]}, {"smiles": "Nc1ccn([C@@H]2OC(CO)=C[C@H]2O)c(=O)n1", "note": "[ddhC, 3’-deoxy-3’,4’-didehydro-cytidine]", "values": [{"measurement": "activity against WNV (in words)", "setting": "[1]; HUH7 cells", "result": "ineffective"}, {"measurement": "activity against WNV (in words)", "setting": "[1]; HUH7.5 cells", "result": "ineffective"}, {"measurement": "activity against WNV (in words)", "setting": "[1]; Vero cells", "result": "ineffective"}, {"measurement": "dosed compound in HUH7 lysate 24 h following dosage (cell permeable)", "setting": "[2]", "result": "detected"}, {"measurement": "reduction of ZIKV levels in infected Vero cells", "setting": "[6]", "result": "50-200 x"}, {"measurement": "cytotoxicity (in words)", "setting": "[4]", "result": "neither ddhC nor 1 were cytotoxic"}, {"measurement": "cytotoxicity (in words)", "setting": "[5]", "result": "neither ddhC nor 1 were cytotoxic"}, {"measurement": "ddhCTP produced", "setting": "[7]", "result": "~ 100 μM"}]}, {"smiles": "Nc1ccn([C@@H]2OC(COP(=O)(O)OP(=O)(O)OP(=O)(O)O)=C[C@H]2O)c(=O)n1", "note": "[ddhCTP, 3’-Deoxy-3’,4’-didehydrocytidine-5’-triphosphate]", "values": [{"measurement": "substrate for DNA polymerase γ (in words)", "setting": "[8]", "result": "not a substrate"}, {"measurement": "mode of action in primer extension assay (in words)", "setting": "[9]", "result": "obligate chain terminator"}]}, {"smiles": "CC(C)OC(=O)[C@H](C)N[P@](=O)(OC[C@H]1O[C@@H](n2ccc(=O)[nH]c2=O)[C@](C)(F)[C@@H]1O)Oc1ccccc1", "note": "[sofosbuvir]", "values": [{"measurement": "Papp", "setting": "[10]", "result": 0.046, "unit": "×10⁻⁶ cm/s"}]}]}
